Reference: US20090170830A1, “Tricyclic Beta-Secretase Inhibitors for the Treatment of Alzheimer's Disease” (priority 2005, published 2009)

Biological target: T1, beta-secretase enzyme (BACE 1), soluble human protein (Homo sapiens, UniProt P56817)
T1 construct: soluble (transmembrane domain and cytoplasmic extension excluded) human protein; made in house
Test: ECL assay: homogeneous end point electrochemiluminescence assay with biotinylated BACE substrate
Format: biochemical
Details: pH 4.5, rt, 30 min, 10% DMSO, range bounds printed in mixed units (lower nM, upper μM)
Experimental: Enzyme inhibition may be determined as follows.
ECL Assay: A homogeneous end point electrochemiluminescence (ECL) assay is employed using a biotinylated BACE substrate. The Km of the substrate is greater than 100 μM and can not be determined due to the limit of solubility of the substrate. A typical reaction contains approximately 0.1 nM enzyme, 0.25 μM of the substrate, and buffer (50 mM NaOAc, pH 4.5, 0.1 mg/ml BSA, 0.2% CHAPS, 15 mM EDTA and 1 mM deferoxamine) in a total reaction volume of 100 μl. The reaction proceeds for 30 min and is then stopped by the addition of 25 μL of 1 M Tris-HCl, pH 8.0. The resulting enzymatic product is assayed by adding a ruthenylated antibody which specifically recognizes the C-terminal residue of the product. Streptavidin coated magnetic beads are added into the solution and the samples are subjected to M-384 (Igen Inc., Gaithersburg, Md.) analysis. Under these conditions, less than 10% of substrate is processed by BACE 1. The enzyme used in these studies is soluble (transmembrane domain and cytoplasmic extension excluded) human protein produced in a baculovirus expression system. To measure the inhibitory potency for compounds, 12 concentrations of inhibitors are prepared starting from 100 μM with three fold series dilution. Solutions of the inhibitor in DMSO are included in the reaction mixture (final DMSO concentration is 10%). […]

T1 sequence (P56817 46-457 limits assumed): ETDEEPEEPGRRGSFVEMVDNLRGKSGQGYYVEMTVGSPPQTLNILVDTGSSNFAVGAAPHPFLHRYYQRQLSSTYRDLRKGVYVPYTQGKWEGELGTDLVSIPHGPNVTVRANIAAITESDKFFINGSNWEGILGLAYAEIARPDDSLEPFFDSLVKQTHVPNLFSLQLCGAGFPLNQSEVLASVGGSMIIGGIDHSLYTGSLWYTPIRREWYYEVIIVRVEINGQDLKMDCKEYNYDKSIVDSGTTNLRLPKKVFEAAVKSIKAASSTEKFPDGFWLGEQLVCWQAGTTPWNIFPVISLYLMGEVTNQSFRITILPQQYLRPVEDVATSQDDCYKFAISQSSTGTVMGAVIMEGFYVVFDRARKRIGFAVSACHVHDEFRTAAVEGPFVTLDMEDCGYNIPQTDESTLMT

Question: How did the “IC50 in inhibiting the beta-secretase enzyme” value turn out when `CCc1cn2c3c(cc(-c4nnc([C@](C)(N)Cc5ccccc5)o4)cc13)N(C)S(=O)(=O)CC2` [Example 1, (2R)-2-[5-(7-ethyl-1-methyl-2,2-dioxido-3,4-dihydro-1H-[1,2,5]thiadiazepino[3,4,5-hi]indol-9-yl)-1,3,4-oxadiazol-2-yl]-1-phenylpropan-2-amine] was run?
Answer: The value was 1 nM and 100000 nM.
